Tested on: fresh human skin explant
Test: Gentian violet delivery into excised human skin explant by loaded microneedle array
Format: in vitro ADME
Details: human skin explant from abdominoplasty, red fluorescence filters
Text: FIGS. 3A and 3B show cross-sections of excised human skin showing penetration by needles loaded with gentian violet. […] The sample was sectioned at an angle nearly parallel to the needle array geometry, allowing observation of multiple needles. The delivery device backing material is visible as a layer between the OCT and the skin sample. The left needle is itself cross-sectioned, showing the gentian violet solution loaded into the needle shaft. The middle needle appears to penetrate both the stratum corneum and the epidermis, with the needle tip in full contact with the dermis. A third needle (on the right) is visible but is out of the focal plane. […] The Gentian violet was detected using a fluorescent microscope under red fluorescence filters (excitation 546 nm; emission 580 nm). The skin section was stained with DAPI to allow nuclei visualization.
A microneedle array in the transdermal delivery device loaded with gentian violet solution was applied to fresh human skin explant (resulting from abdominoplasty procedure) and immediately placed into tissue freezing medium (OCT) and frozen to -28° C. The sample was sectioned at an angle nearly parallel to the needle array geometry, and multiple needles were observed (FIG. 3). In FIG. 3, the microneedle array transdermal delivery device backing material is visible as a layer between the OCT and the skin sample. […]

SMILES: CN(C)c1ccc(C(=C2C=CC(=[N+](C)C)C=C2)c2ccc(N(C)C)cc2)cc1 [gentian violet]
- skin layer reached, fluorescence microscopy of skin section: delivered to human epidermis and dermis

— patent US20230278266A1, “MICRONEEDLE ARRAYS FORMED FROM POLYMER FILMS” (TransDerm, Inc., priority 2007, published 2023)
